The values below are quoted from earlier work in US20120108429A1, “SAFENED AND EFFICACIOUS WEED CONTROL PARTICLE” (The Andersons, Inc., priority 2010, published 2012).

The data set relates to pentas and hemerocallis. As to conditions: application of the herbicide.

`C#CCN1C(=O)COc2cc(F)c(N3C(=O)C4=C(CCCC4)C3=O)cc21` [flumioxazin]: the “effect on growth of ornamental plants” value was “inhibited from properly growing”.
